The text below walks through data of patent US20170296550A1, “ARYL SULTAM DERIVATIVES AS RORc MODULATORS” (Genentech, Inc., priority 2013, published 2017).

pIC50: −log10 of the molar value.

In this experiment the target is T1, RORc (Homo sapiens, UniProt P51449).
T1 construct: host or cells: E. coli
T1 sequence (P51449 269-508 limits assumed): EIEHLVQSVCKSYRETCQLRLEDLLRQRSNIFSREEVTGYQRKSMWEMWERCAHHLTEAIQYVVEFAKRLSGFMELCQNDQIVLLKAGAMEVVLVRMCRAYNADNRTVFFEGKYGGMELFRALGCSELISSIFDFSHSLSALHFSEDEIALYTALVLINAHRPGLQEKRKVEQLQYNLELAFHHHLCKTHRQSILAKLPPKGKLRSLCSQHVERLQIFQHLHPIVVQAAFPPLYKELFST
Briefly: In Vitro RORc Ligand Binding Assay (25-[3H]hydroxycholesterol radioligand, filter plate). The settings on record: RORc ligand binding domain 0.6 ug/mL; 6 nM 25-[3H]hydroxycholesterol; 3 h at 25° C. The protocol:
Example 68 In Vitro RORc Ligand Binding Assay
This assay was used to determine a compound's potency in inhibiting activity of RORc by determining, Kiapp, IC50, or percent inhibition values.
On day of the assay, 100 uL of 0.05% CHAPS (in deionized H2O) was added to all wells of the GFB Unifilter plate and allowed soak for 1 h. A wash buffer of 50 mM HEPES (pH 7.4), 150 mM NaCl, and 5 mM MgCl2 was prepared to wash the filter plate. To prepare an assay buffer, BSA was added to the wash buffer to reach 0.01% and DTT was added to reach 1 mM.
For IC50 mode, 10 mM compound stocks were serially diluted in DMSO with DMSO to give 20× required final concentration in DMSO (15 uL compound+30 uL DMSO). The 20× compound stocks were diluted in DMSO with Assay Buffer 4-fold to reach 5× the final test concentration in 25% DMSO (10 uL compound+30 uL Assay Buffer). Solutions were mixed by aspiration several times with a pipette set on 50 uL volume. For the assay, 10 uL of 5× compound stock solutions in 25% DMSO were added to the assay plate in duplicate.
For two point screening, 10 mM stock compound solutions were diluted in DMSO to obtain 200 uM (20× the high test concentration) and then diluted 10-fold further to reach 20 uM (20× the low test concentration). The 20× stocks were diluted 4-fold with Assay Buffer (10 uL compound+30 uL Assay Buffer) to reach 5× the test concentrations (50 uM and 5 uM) and 10 uL were added to two assay plates for the duplicate wells. With each concentration tested on 2 plates, each set of 80 compounds used 4 assay plates (1 uM and 10 uM, with n=2).
25-hydroxycholesterol (1 uM) was used to determine the level of NSB signal is prepared in DMSO as for compounds above, then diluted in Assay Buffer to give a final concentration of 5 uM. For 25-hydroxycholesterol in 25% DMSO/75% Assay Buffer; 10 uL per well was used for NSB samples. Wells for Total Binding and No Receptor sample determination contained 10 uL of 25% DMSO/75% Assay Buffer per well.
Radioligand (25-[^3H]hydroxycholesterol) Preparation
25-[^3H]hydroxycholesterol was dilute in Assay Buffer to obtain 15 nM and vortex to mix. Add 20 uL to all wells to reach 6 nM final in the assay.
Stock receptor solution was diluted in assay buffer to obtain 1.5 ug/mL in Assay Buffer. 20 uL was added to all wells. For No R samples, 20 uL Assay Buffer was substituted for receptor solution.
Assay plates were 96-well polypropylene V-bottom plates. 10 uL of 5× compound in 25% DMSO/75% Assay Buffer was added to Test wells. 10 uL of 25% DMSO/75% Assay Buffer was added to Total Binding or No Receptor wells. 10 uL of 5 uM 25-hydroxycholesterol in 25% DMSO/75% Assay Buffer was added to NSB wells. 20 uL of 15 nM 25-[^3H]hydroxycholesterol prepared in Assay Buffer was added to all wells. 20 uL of 1.5 ug/mL RORc receptor was added to wells (or […] Assay Buffer to No R wells). Following addition to the wells, the plates were incubated 3 h at 25° C.
Using a Packard Filtermate Harvester, the filter plate were washed 4 times following transfer of the incubated samples. Plates were dry-filtered completely (2 h at 50° C. or overnight at room temperature). 50 uL Microscint 0 was added to all wells and read on Topcount protocol Inverted.
Final concentrations were as follows: 50 mM HEPES buffer (pH 7.4); 150 mM NaCl; 1 mM DTT; 5 mM MgCl2; 0.01% BSA; 5% DMSO; 0.6 ug/mL RORc receptor; 6 nM 25-[^3H]hydroxycholesterol. For NSB wells, 1 uM 25-hydroxycholesterol was also present.
As a reminder, the pIC50 is the IC50 on a negative log10 scale, so that one unit is a factor of ten. A high value points to a low IC50. For the compound `C[C@H]1CCC(c2ccccc2)S(=O)(=O)N1Cc1ccc(C(=O)NCc2ccno2)cc1` (stereo partly drawn) [Example 19, N-Isoxazol-5-ylmethyl-4-((3S)-3-methyl-1,1-dioxo-6-phenyl-[1,2]thiazinan-2-ylmethyl)-benzamide], the pIC50 is 6.01.

`Cc1nn(C)cc1NC(=O)c1ccc(CN2[C@@H](C)CCC(c3ccccc3)S2(=O)=O)cc1` (stereo partly drawn) [Example 20, N-(1,3-Dimethyl-1H-pyrazol-4-yl)-4-((3S)-3-methyl-1,1-dioxo-6-phenyl-[1,2]thiazinan-2-ylmethyl)-benzamide] had a pIC50 of 5.68.

The compound `C[C@H]1CCC(c2ccccc2)S(=O)(=O)N1Cc1ccc(-c2cccc(S(C)(=O)=O)c2)cc1F` (stereo partly drawn) [Example 23, (3S)-2-(3-Fluoro-3′-methanesulfonyl-biphenyl-4-ylmethyl)-3-methyl-6-phenyl-[1,2]thiazinane 1,1-dioxide] gave a pIC50 of 6.67.

Consider `C[C@H]1CCC(c2ccccc2)S(=O)(=O)N1Cc1ccc(-c2ccc(C#N)nc2)cc1F` (stereo partly drawn) [Example 24, 5-[3-Fluoro-4-((3S)-3-methyl-1,1-dioxo-6-phenyl-[1,2]thiazinan-2-ylmethyl)-phenyl]-pyridine-2-carbonitrilc], for which the pIC50 was 6.96.

In turn, `CC(=O)Nc1ccc(-c2ccc(CN3[C@@H](C)CCC(c4ccccc4)S3(=O)=O)c(F)c2)cn1` (stereo partly drawn) [Example 26, N-{5-[3-Fluoro-4-((3S)-3-methyl-1,1-dioxo-6-phenyl-[1,2]thiazinan-2-ylmethyl)-phcnyl]-pyridin-2-yl}-acetamide] had a negative-log IC50 (pIC50) of 5.72.

In turn, `C[C@H]1CCC(c2ccccc2)S(=O)(=O)N1Cc1ccc(-c2ccc(C#N)cc2)cc1F` (stereo partly drawn) [Example 27, 3′-Fluoro-4′-((3S)-3-methyl-1,1-dioxo-6-phenyl-[1,2]thiazinan-2-ylmethyl)-biphenyl-4-carbonitrile] gave a pIC50 of 6.99.

`C[C@H]1CCC(c2ccccc2)S(=O)(=O)N1Cc1ccc(-c2ccc(C(N)=O)cc2)cc1F` (stereo partly drawn) [Example 28, 3′-Fluoro-4′-((3S)-3-methyl-1,1-dioxo-6-phenyl-[1,2]thiazinan-2-ylmethyl)-biphenyl-4-carboxylic acid amide] gave a pIC50 of 7.43.

As to `C[C@H]1CCC(c2ccccc2)S(=O)(=O)N1Cc1ccc(-c2cnn(C)c2)cc1F` (stereo partly drawn) [Example 29, (3S)-2-[2-Fluoro-4-(1-methyl-1H-pyrazol-4-yl)-benzyl]-3-methyl-6-phenyl-[1,2]thiazinane 1,1-dioxide], the pIC50 was 6.14.

For the compound `C[C@H]1CCC(c2ccccc2)S(=O)(=O)N1Cc1ccc(-c2ccc(S(C)(=O)=O)cc2)cc1F` (stereo partly drawn) [Example 31, (3S)-2-(3-Fluoro-4′-methanesulfonyl-biphenyl-4-ylmethyl)-3-methyl-6-phenyl-[1,2]thiazinane 1,1-dioxide], the pIC50 is 7.55.

Compound `C[C@H]1CCC(c2ccccc2)S(=O)(=O)N1Cc1ccc(-c2ccccc2)cc1F` (stereo partly drawn) [Example 32, (3S)-2-(3-Fluoro-biphenyl-4-ylmethyl)-3-methyl-6-phenyl-[1,2]thiazinane 1,1-dioxide] showed a pIC50 of 6.79. Compared with the last compound, the pIC50 is 0.76 log units lower.

On to `C[C@H]1CCC(c2ccccc2)S(=O)(=O)N1Cc1ccc(-c2ccc(NS(C)(=O)=O)cc2)cc1F` (stereo partly drawn) [Example 33, N-[3′-Fluoro-4′-((3S)-3-methyl-1,1-dioxo-6-phenyl-[1,2]thiazinan-2-ylmethyl)-biphenyl-4-yl]-methanesulfonamide], for which the pIC50 was 7.36.

For `C[C@H]1CCC(c2ccccc2)S(=O)(=O)N1Cc1ccc(-c2ccncc2)cc1F` (stereo partly drawn) [Example 34, (3S)-2-(2-Fluoro-4-pyridin-4-yl-benzyl)-3-methyl-6-phenyl-[1,2]thiazinane 1,1-dioxide], the pIC50 was 6.33.

For the compound `Cc1noc(C)c1-c1ccc(CN2[C@@H](C)CCC(c3ccccc3)S2(=O)=O)c(F)c1` (stereo partly drawn) [Example 35, (3S)-2-[4-(3,5-Dimethyl-isoxazol-4-yl)-2-fluoro-benzyl]-3-methyl-6-phenyl-[1,2]thiazinane 1,1-dioxide], the pIC50 was 6.27. This pIC50 and that of the compound before are within 0.2 log units of each other.

For the compound `CNC(=O)c1ccc(-c2ccc(CN3[C@@H](C)CCC(c4ccccc4)S3(=O)=O)c(F)c2)cn1` (stereo partly drawn) [Example 36, 5-[3-Fluoro-4-((3S)-3-methyl-1,1-dioxo-6-phenyl-[1,2]thiazinan-2-ylmethyl)-phenyl]-pyridine-2-carboxylic acid methylamide], the pIC50 is 5.80.

Compound `C[C@H]1CCC(c2ccccc2)S(=O)(=O)N1Cc1ccc(-c2ccc(S(C)(=O)=O)cn2)cc1F` (stereo partly drawn) [Example 38, (3S)-2-[2-Fluoro-4-(5-methanesulfonyl-pyridin-2-yl)-benzyl]-3-methyl-6-phenyl-[1,2]thiazinane 1,1-dioxide] showed a pIC50 of 7.06. Against the preceding compound, the pIC50 is 1.26 log units higher.

Take `C[C@H]1CCC(c2ccccc2)S(=O)(=O)N1Cc1ccc(-c2ccc(S(C)(=O)=O)nc2)cc1F` (stereo partly drawn) [Example 39, (3S)-2-[2-Fluoro-4-(6-methanesulfonyl-pyridin-3-yl)-benzyl]-3-methyl-6-phenyl-[1,2]thiazinanc 1,1-dioxide]: the pIC50 is 6.82.

`C[C@H]1CCC(c2ccccc2)S(=O)(=O)N1Cc1ccc(-c2cnc(S(C)(=O)=O)nc2)cc1F` (stereo partly drawn) [Example 40, (3S)-2-[2-Fluoro-4-(2-mcthanesulfonyl-pyrimidin-5-yl)-benzyl]-3-methyl-6-phenyl-[1,2]thiazinane 1,1-dioxide] gave a pIC50 of 6.00.

`Cc1cccnc1COc1ccc(CN2[C@@H](C)CCC(c3ccccc3)S2(=O)=O)cc1` (stereo partly drawn) [Example 46, (3S)-3-Methyl-2-[4-(3-methyl-pyridin-2-ylmethoxy)-benzyl]-6-phenyl-[1,2]thiazinane 1,1-dioxide] gave a pIC50 of 6.82.

As to `Cc1cnccc1COc1ccc(CN2[C@@H](C)CCC(c3ccccc3)S2(=O)=O)cc1` (stereo partly drawn) [Example 47, (3S)-3-Methyl-2-[4-(3-methyl-pyridin-4-ylmethoxy)-benzyl]-6-phenyl-[1,2]thiazinane 1,1-dioxide], the pIC50 was 6.69.

`C[C@H]1CCC(c2ccccc2)S(=O)(=O)N1Cc1ccc(OCc2ncccn2)cc1` (stereo partly drawn) [Example 48, (3S)-3-Methyl-6-phenyl-2-[4-(pyrimidin-2-ylmethoxy)-benzyl]-[1,2]thiazinane 1,1-dioxide] showed a pIC50 of 5.79.

Compound `C[C@H]1CCC(c2ccccc2)S(=O)(=O)N1Cc1ccc(OCc2cncn2C)cc1` (stereo partly drawn) [Example 49, (3S)-3-Methyl-2-[4-(3-methyl-3H-imidazol-4-ylmethoxy)-benzyl]-6-phenyl-[1,2]thiazinane 1,1-dioxide] had a pIC50 of 6.53.

In turn, `Cc1cnc(COc2ccc(CN3[C@@H](C)CCC(c4ccccc4)S3(=O)=O)cc2)nc1` (stereo partly drawn) [Example 51, (3S)-3-Methyl-2-[4-(5-methyl-pyrimidin-2-ylmethoxy)-benzyl]-6-phenyl-[1,2]thiazinane 1,1-dioxide] had a pIC50 of 5.93.

For the compound `Cc1ncccc1COc1ccc(CN2[C@@H](C)CCC(c3ccccc3)S2(=O)=O)cc1` (stereo partly drawn) [Example 52, (3S)-3-Methyl-2-[4-(2-methyl-pyridin-3-ylmethoxy)-benzyl)-6-phenyl-[1,2]thiazinane 1,1-dioxide], the pIC50 was 7.24. Against the preceding compound, the pIC50 is 1.31 log units higher.

`Cc1oncc1COc1ccc(CN2[C@@H](C)CCC(c3ccccc3)S2(=O)=O)cc1` (stereo partly drawn) [Example 53, (3S)-3-Methyl-2-[4-(5-methyl-isoxazol-4-ylmethoxy)-benzyl]-6-phenyl-[1,2]thiazinane 1,1-dioxide]: the pIC50 is 6.68.
